Source: patent US4992449A, “7-(substituted)cycloalkylamino-1 -(substituted)-6-fluoro-1,4-dihydro-4-oxo-3-quinolinecarboxylic acids” (American Cyanamid Company, priority 1990, dated 1991)
In brackets after ≈: the same amount, converted by molar mass. Read-outs that look alike come from different tables or passages of the source.

Experiments:
Assay in all cases: In vitro antibacterial MIC, agar plate dilution
Type in all cases: cell-based
Excherichia coli LL 311 = conditions: Table II
Experimental: (§1) The in vitro antimicrobial spectrum of the compounds of this invention were determined by the agar plate dilution method with Mueller-Hinton agar and an inoculum of each test organism of approximately 10^4 colony forming units delivered by the Steers replicating device. The minimal inhibitory concentration (MIC) in mcg/ml is defined as the lowest concentration of test compound that inhibited visible growth after 18 hours incubation at 35° C. Results are given in Table I, with the test compounds identified by the number of their hereinafter described examples

[1] = tested on: Staphylococcus aureus ATCC 29213; conditions: Table II
Experimental: as §1

[2] = tested on: Proteus rettgeri CMC 84-41; conditions: Table II
Experimental: as §1

[3] = tested on: Pseudomonas aeruginosa VGH 84-4; conditions: Table II
Experimental: as §1

[4] = tested on: Escherichia coli ATCC 25922; conditions: Table II, Excherichia coli ATCC 25922
Experimental: as §1

[5] = tested on: Streptococcus faecalis VGH 84-65; conditions: Table II
Experimental: as §1

[6] = tested on: Staphylococcus aureus Smith 1; conditions: Table II
Experimental: as §1

[7] = tested on: Streptococcus faecalis UCI 85-19; conditions: Table II
Experimental: as §1

[8] = tested on: Excherichia coli CMC 84-11; conditions: Table II
Experimental: as §1

[9] = tested on: Staphylococcus aureus VGH 84-45; conditions: Table II
Experimental: as §1

[10] = tested on: Morganella morganii CMC 84-37; conditions: Table II
Experimental: as §1

[11] = tested on: Pseudomonas aeruginosa LL-1244; conditions: Table II
Experimental: as §1

[12] = tested on: Serratia marcescens K 84-18; conditions: Table II
Experimental: as §1

[13] = tested on: Serratia marcescens VGH 84-30; conditions: Table II
Experimental: as §1

[14] = Staphylococcus aureus, ATCC29213, 18 h, read-out: MIC
[15] = Providencia rettgeri, CMC8441, 18 h, read-out: MIC
[16] = Pseudomonas aeruginosa, VGH844, 18 h, read-out: MIC
[17] = Escherichia coli, ATCC25922, 18 h, read-out: MIC
[18] = Enterococcus faecalis, VGH8465, 18 h, read-out: MIC
[19] = Enterococcus faecalis, UCI8519, 18 h, read-out: MIC
[20] = Pseudomonas aeruginosa, LL1244, 18 h, read-out: MIC
[21] = Staphylococcus aureus, SMITH1, 18 h, read-out: MIC

MIC [6] [µg/mL] | MIC (Excherichia coli LL 311; 18 h, read-out: MIC) [µg/mL] | MIC [1, 14] [µg/mL] | MIC [2, 15] [µg/mL] | MIC [3, 16] [µg/mL] | MIC [4, 17] [µg/mL] | MIC [5, 18] [µg/mL] | MIC [7, 19] [µg/mL] | MIC ([8]; 18 h, read-out: MIC) [µg/mL] | MIC ([9]; VGH8445, 18 h, read-out: MIC) [µg/mL] | MIC ([10]; CMC8437, 18 h, read-out: MIC) [µg/mL] | MIC [11, 20] [µg/mL] | MIC ([12]; K8418, 18 h, read-out: MIC) [µg/mL] | MIC ([13]; VGH8430, 18 h, read-out: MIC) [µg/mL] | MIC [6, 21] [µg/mL] | SMILES | further results
128.00 (≈ 368 µM) | – | – | – | – | – | – | – | – | – | – | – | – | – | – | CCn1cc(C(=O)O)c(=O)c2cc(F)c(N[C@@H]3CCCC[C@H]3N)cc21 (relative stereo) [Example 9, Trans-(+)-7-[(2-Aminocyclohexyl)amino]-1-ethyl-6-fluoro-1,4-dihydro-4-oxo-3-quinolinecarboxylic acid] | MIC (Excherichia coli LL 311): 32.00 µg/mL (≈ 92.1 µM); MIC [1]: > 128.00 µg/mL; MIC [2]: 128.00 µg/mL (≈ 368 µM); MIC [3]: 128.00 µg/mL (≈ 368 µM); MIC [4]: 32.00 µg/mL (≈ 92.1 µM); MIC [5]: 64.00 µg/mL (≈ 184 µM); MIC [7]: 128.00 µg/mL (≈ 368 µM); MIC [8]: 16.00 µg/mL (≈ 46.1 µM); MIC [9]: 128.00 µg/mL (≈ 368 µM); MIC [10]: 32.00 µg/mL (≈ 92.1 µM); MIC [11]: 128.00 µg/mL (≈ 368 µM); MIC [12]: 32.00 µg/mL (≈ 92.1 µM); MIC [13]: 128.00 µg/mL (≈ 368 µM)
16.00 (≈ 46.1 µM) | 32 (≈ 92.1 µM) | 128 (≈ 368 µM) | 128 (≈ 368 µM) | > 128 | 32 (≈ 92.1 µM) | 64 (≈ 184 µM) | 128 (≈ 368 µM) | 16 (≈ 46.1 µM) | 128 (≈ 368 µM) | 32 (≈ 92.1 µM) | > 128 | 32 (≈ 92.1 µM) | 128 (≈ 368 µM) | – | CCn1cc(C(=O)O)c(=O)c2cc(F)c(N[C@@H]3CCCC[C@H]3N)cc21 (relative stereo) [Example 8, Trans-(-)-7-[(2-Aminocyclohexyl)amino]-1-ethyl-6-fluoro-1,4-dihydro-4-oxo-3-quinolinecarboxylic acid] | –
– | 16 (≈ 45.9 µM) | 64 (≈ 184 µM) | 64 (≈ 184 µM) | > 128 | 32 (≈ 91.9 µM) | > 128 | > 128 | 32 (≈ 91.9 µM) | 32 (≈ 91.9 µM) | 32 (≈ 91.9 µM) | > 128 | 64 (≈ 184 µM) | > 128 | 8 (≈ 23 µM) | CCn1cc(C(=O)O)c(=O)c2cc(F)c(N[C@@H]3CCCC[C@@H]3O)cc21 (relative stereo) [Example 5, Cis-7-[(2-Hydroxycyclohecxyl)amino]-1-ethyl-6-fluoro-1,4-dihydro-4-oxo-3-quinolinecarboxylic acid] | –
– | 32 (≈ 92.1 µM) | > 128 | 128 (≈ 368 µM) | 128 (≈ 368 µM) | 32 (≈ 92.1 µM) | 64 (≈ 184 µM) | 128 (≈ 368 µM) | 16 (≈ 46.1 µM) | 128 (≈ 368 µM) | 32 (≈ 92.1 µM) | 128 (≈ 368 µM) | 64 (≈ 184 µM) | 128 (≈ 368 µM) | 16 (≈ 46.1 µM) | CCn1cc(C(=O)O)c(=O)c2cc(F)c(N[C@@H]3CCCC[C@H]3N)cc21 (racemic) [Example 7, Trans-(+/-)-7-[(2-Aminocyclohexyl)amino]1-ethyl-6-fluoro-1,4-dihydro-4-oxo-3-quinolinecarboxylic acid] | –
– | 0.5 (≈ 1.44 µM) | 8 (≈ 23 µM) | 1 (≈ 2.88 µM) | 8 (≈ 23 µM) | 0.5 (≈ 1.44 µM) | 8 (≈ 23 µM) | 8 (≈ 23 µM) | 0.5 (≈ 1.44 µM) | 2 (≈ 5.76 µM) | 0.5 (≈ 1.44 µM) | 8 (≈ 23 µM) | 1 (≈ 2.88 µM) | 4 (≈ 11.5 µM) | 0.5 (≈ 1.44 µM) | CCn1cc(C(=O)O)c(=O)c2cc(F)c(N[C@@H]3CCCC[C@@H]3N)cc21 (relative stereo) [Example 6, Cis-7-[(2-Aminocyclohexyl)amino]-1-ethyl-6-fluoro-1,4-dihydro-4-oxo-3-quinolinecarboxylic acid] | –
– | 4 (≈ 11.1 µM) | 8 (≈ 22.1 µM) | 32 (≈ 88.5 µM) | 128 (≈ 354 µM) | 8 (≈ 22.1 µM) | 32 (≈ 88.5 µM) | 32 (≈ 88.5 µM) | 4 (≈ 11.1 µM) | 4 (≈ 11.1 µM) | 8 (≈ 22.1 µM) | 128 (≈ 354 µM) | 8 (≈ 22.1 µM) | 32 (≈ 88.5 µM) | 2 (≈ 5.53 µM) | CCn1cc(C(=O)O)c(=O)c2cc(F)c(N[C@@H]3CCCC[C@@H]3NC)cc21 (relative stereo) [Example 10] | –
